IC50 data for three molecules are collected here from ChEMBL document CHEMBL1949662, “JBIR-94 and JBIR-125, antioxidative phenolic compounds from Streptomyces sp. R56-07” (J Nat Prod, 2012).

The subject of this assay is Radical scavenging activity. Nature of the assay: Antioxidant activity assessed as DPPH free radical scavenging activity after 30 mins. Type of assay: functional. In general terms: The DPPH test is a chemical assay of radical scavenging.

On to `CC(=O)NCCCCN(CCCNC(=O)CCc1ccc(O)cc1)C(=O)CCc1ccc(O)cc1`, for which the IC50 (in general, the concentration needed to halve the response being measured) stood at 35.1 µM.

On to `COc1cc(CCC(=O)NCCCCNC(=O)CCc2ccc(O)c(OC)c2)ccc1O`, for which the IC50 amounted to 11.4 µM.

Take `Cc1c(C)c2c(c(C)c1O)CC[C@@](C)(CCC[C@H](C)CCC[C@H](C)CCCC(C)C)O2` [ALPHA-TOCOPHEROL]: the IC50 stood at 9 µM.
